How the values were obtained:
HSD17B13 enzyme [1] = biological target: T1, HSD17B13 enzyme (Homo sapiens, UniProt Q7Z5P4); test: LC/MS estrone detection assay (conversion of estradiol to estrone by HSD17B13); assay type: biochemical; settings: substrate 4 μM estradiol, 6 mM NAD+, 30 nM HSD17B13 enzyme, 2 hours at 26.5° C
T1 construct: His; made in house; host or cells: E. coli
T1 sequence (Q7Z5P4 20-300): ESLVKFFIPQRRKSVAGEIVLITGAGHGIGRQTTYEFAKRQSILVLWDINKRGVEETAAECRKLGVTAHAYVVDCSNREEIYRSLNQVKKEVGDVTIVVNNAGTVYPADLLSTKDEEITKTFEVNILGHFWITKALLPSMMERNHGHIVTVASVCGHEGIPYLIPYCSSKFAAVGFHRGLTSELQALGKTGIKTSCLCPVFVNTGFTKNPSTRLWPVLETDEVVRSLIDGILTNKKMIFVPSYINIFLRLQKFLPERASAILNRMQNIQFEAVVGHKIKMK
Procedure: The liquid chromatography/mass spectrometry (LC/MS) estrone detection assay monitors the conversion of estradiol to estrone by HSD17B13. This assay was performed in a 96 wp format (Eppendorf deep well Plate 96/500) in an 80 μl reaction volume containing: 4 μM estradiol (E2; Cayman; Ser. No. 10/006,315); 6 mM NAD^+ (Sigma; #N0623), and 30 nM HSD17B13 enzyme (in-house; E. coli expressed His-tagged, purified, soluble protein), in a buffer containing 1M potassium phosphate buffer pH 7.4 and 0.5% vehicle (DMSO). Reactions were incubated for 2 hours at 26.5° C., and estradiol (E2) conversion to estrone (E1) was quantitated by LC-MS/MS based analyte detection for E1 using LCMS grade reagents. Reactions were terminated by the addition of two volumes of acetonitrile (MeCN; LCMS grade; CAS #75/05/8) containing deuterated (D4)-E1 as internal standard (Clear Synth; #CS-T-54273; 500 ng/mL final concentration). Samples were applied to pre-prepared Bond Elut-C18 extraction cartridges (3 mL; Agilent; Ser. No. 12/102,028), and washed and eluted in MeCN. Eluates were dried under nitrogen and re-suspended in 60% methanol (LCMS grade methanol; CAS #67/56/1) before submission for analysis. Standard curves for E1 were included for quantification. Analysis of samples was undertaken on a XBridge BEH C18 column (Waters; #186003033) using 0.1% Diethyl Amine in MeCN (mobile phase A; DEA CAS #109-89-7) and 0.1% Diethyl Amine in milli-Q water (mobile phase B) in a 3 min gradient up to 25% B. Analytes were detected in negative mode using MRM analysis, with E2 having a RT of 1.85 min and E1 having a RT of 2 min. Activity of the enzyme in the absence of NAD^+, was subtracted from samples to yield values for specific enzyme activity. Enzyme activity in the presence of test samples was expressed as a percentage of the uninhibited enzyme activity, and plotted versus inhibitor concentration. Non-linear regression was performed using the Morrison equation (see below) for tight binding inhibitors on GraphPad Prism software (GraphPad Software, La Jolla, Calif.). All assessments were undertaken in duplicate evaluations which were pooled during the extraction process and subsequently injected as duplicates for LC-MS/MS analysis. Y=Vo*(1−((((Et+X+Q)−(((Et+X+Q)^2)−4*Et*X)^0.5))/(2*Et))) Morrison equation:
Y=Activity in the presence of inhibitor; Vo=Activity in absence of inhibitor; Et=Total enzyme concentration; X=inhibitor concentration; and Q=(Ki*(1+(S/Km))), where Ki is the inhibition constant, Km is the Michaelis constant, and S is the substrate concentration.

HSD17B13 enzyme [2] = biological target: T1, HSD17B13 enzyme; test: NADH detection assay (fluorescence based Leukotriene B3 (LTB3) assay) for HSD17B13 activity; assay type: biochemical; settings: substrate 25 μM LTB3, 3 mM NAD+, 125 nM HSD17B13 enzyme, 1 hour at 26.5° C
Procedure: The fluorescence based Leukotriene B3 (LTB3) assay monitors the fluorescence of NADH, which is generated from NAD+ during the dehydrogenation of the substrate LTB3. The reactions were performed in a 384-well plates (Greiner; #655076) in a 20 μl reaction volume containing the following reagents (final concentrations): 25 μM LTB3 (Cayman; #20109); 3 mM NAD^+ (Sigma; #N0623); 125 nM HSD17B13 enzyme (in-house; E. coli expressed His-tagged, purified, soluble protein); 1 M potassium phosphate buffer, pH 7.4; and 1% DMSO. Reactions were initiated by co-addition of NAD+ and enzyme, and monitored for 1 hour at 26.5° C. Generation of NADH was measured as the fluorescence signal (Excitation at 340 nm and Emission at 445 nm) at 1 hour minus the baseline fluorescence at t=0. Fluorescence signals in the absence of LTB3 (negative control values), were subtracted from all values so that the results reflected substrate-dependent production of NADH. NADH standards were included to allow the conversion of relative fluorescence units into rates of enzyme activity. Enzyme activity in the presence of test compounds was expressed as a percentage of the uninhibited enzyme activity, and plotted versus inhibitor concentration. Non-linear regression was performed using a four-parameter logistic model and Microsoft Excel Solver® software. Ten concentrations of inhibitor were tested in duplicate (in the range of 30 μM-2.5 nM). Two independent concentration response assays were performed and the geometric mean is reported, =/−the SEM.

Compound | IC50 (HSD17B13 enzyme [1]) | IC50 (HSD17B13 enzyme [2])
O=C(Nc1ccsc1C(=O)NCCc1ccccc1F)c1ccc(O)c(Cl)c1 [Example 9, 3-(3-chloro-4-hydroxybenzamido)-N-(2-fluorophenethyl)thiophene-2-carboxamide] | ≤ 0.1 µM | ≤ 1 µM
COc1ccccc1CCNC(=O)c1sccc1NC(=O)c1ccc2[nH]nc(Cl)c2c1 [Example 28, 3-chloro-N-(2-((2-methoxyphenethyl)carbamoyl)thiophen-3-yl)-1H-indazole-5-carboxamide] | > 10 µM | > 10 µM
COc1ccccc1CCNC(=O)c1ccsc1NC(=O)c1ccc(O)c(Cl)c1 [Example 13, 2-(3-chloro-4-hydroxybenzamido)-N-(2-methoxyphenethyl)thiophene-3-carboxamide] | ≤ 0.1 µM | ≤ 1 µM
COc1ccccc1CCNC(=O)c1c(NC(=O)c2ccc(O)c(F)c2)sc(C)c1C [Example 16, 2-(3-fluoro-4-hydroxybenzamido)-N-(2-methoxyphenethyl)-4,5-dimethylthiophene-3-carboxamide] | ≤ 0.1 µM | ≤ 1 µM
COc1ccccc1CCNC(=O)c1sccc1NC(=O)c1ccc(O)c(F)c1 [Example 30, 3-(3-fluoro-4-hydroxybenzamido)-N-(2-methoxyphenethyl)thiophene-2-carboxamide] | ≤ 0.1 µM | ≤ 1 µM
COc1ccccc1CCNC(=O)c1sccc1NC(=O)c1ccc(OC(F)(F)C(=O)O)c(Cl)c1 [Example 25, 2-(2-chloro-4-((2-((2-methoxyphenethyl)carbamoyl)thiophen-3-yl)carbamoyl)phenoxy)-2,2-difluoroacetic acid] | 1 to 10 µM | > 10 µM
COc1ccccc1CCNC(=O)c1sccc1NC(=O)c1ccc(O)c(C(F)(F)F)c1 [Example 33, 3-(4-hydroxy-3-(trifluoromethyl)benzamido)-N-(2-methoxyphenethyl)thiophene-2-carboxamide] | ≤ 0.1 µM | > 10 µM
COc1ccccc1CCNC(=O)c1c(NC(=O)c2ccc(O)c(Cl)c2)sc2c1CCCC2 [Example 14, 2-(3-chloro-4-hydroxybenzamido)-N-(2-methoxyphenethyl)-4,5,6,7-tetrahydrobenzo[b]thiophene-3-carboxamide] | 0.1 to 1 µM | 1 to 5 µM
O=C(Nc1ccsc1C(=O)NCc1c[nH]c2ccccc12)c1ccc(O)c(Cl)c1 [Example 4, N-((1H-indol-3-yl)methyl)-3-(3-chloro-4-hydroxybenzamido)thiophene-2-carboxamide] | ≤ 0.1 µM | ≤ 1 µM
COc1ccccc1CCNC(=O)c1sccc1NC(=O)c1ccc(S(N)(=O)=O)c(Cl)c1 [Example 26, 3-(3-chloro-4-sulfamoylbenzamido)-N-(2-methoxyphenethyl)thiophene-2-carboxamide] | > 10 µM | > 10 µM
COc1ccccc1CCNC(=O)c1sc2ccccc2c1NC(=O)c1ccc(O)c(Cl)c1 [Example 31, 3-(3-chloro-4-hydroxybenzamido)-N-(2-methoxyphenethyl)benzo[b] thiophene-2-carboxamide] | 0.1 to 1 µM | ≤ 1 µM
COc1ccccc1CCNC(=O)c1sccc1NC(=O)c1ccc(C(F)(F)C(=O)O)c(F)c1 [Example 27, 2,2-difluoro-2-(2-fluoro-4-((2-((2-methoxyphenethyl)carbamoyl)thiophen-3-yl)carbamoyl)phenyl)acetic acid] | > 10 µM | > 10 µM
CCNC(=O)c1sccc1NC(=O)c1ccc(O)c(Cl)c1 [Example 5, 3-(3-chloro-4-hydroxybenzamido)-N-ethylthiophene-2-carboxamide] | 0.1 to 1 µM | ≤ 1 µM
COc1ccccc1CCNC(=O)c1sccc1NC(=O)c1ccc(O)c(Cl)c1 [Example 1, 3-(3-chloro-4-hydroxybenzamido)-N-(2-methoxyphenethyl)thiophene-2-carboxamide] | ≤ 0.1 µM | ≤ 1 µM
COc1ccccc1CCNC(=O)c1sc2nccnc2c1NC(=O)c1ccc(O)c(Cl)c1 [Example 12, 7-(3-chloro-4-hydroxybenzamido)-N-(2-methoxyphenethyl)thieno[2,3-b]pyrazine-6-carboxamide] | 0.1 to 1 µM | 1 to 5 µM
COc1ccccc1CCNC(=O)c1sccc1NC(=O)Cc1ccc(O)c(Cl)c1 [Example 20, 3-(2-(3-chloro-4-hydroxyphenyl)acetamido)-N-(2-methoxyphenethyl)thiophene-2-carboxamide] | 0.1 to 1 µM | > 10 µM
COc1ccccc1CCNC(=O)c1sccc1NC(=O)c1ccncc1 [Example 10, N-(2-((2-methoxyphenethyl)carbamoyl)thiophen-3-yl)isonicotinamide] | > 10 µM | > 10 µM
COc1ccccc1CCNC(=O)c1sc(Cl)cc1NC(=O)c1ccc(O)c(Cl)c1 [Example 17, 5-chloro-3-(3-chloro-4-hydroxybenzamido)-N-(2-methoxyphenethyl)thiophene-2-carboxamide] | ≤ 0.1 µM | ≤ 1 µM
COc1ccccc1CCNC(=O)c1sccc1NC(=O)c1ccc(S(=O)(=O)NC(=O)c2ccccc2)c(Cl)c1 [Example 24, 3-(4-(N-benzoylsulfamoyl)-3-chlorobenzamido)-N-(2-methoxyphenethyl)thiophene-2-carboxamide] | 1 to 10 µM | > 10 µM
COc1ccccc1CCNC(=O)c1sccc1NC(=O)c1ccc(N2CCC(C(=O)O)C2)c(Cl)c1 (stereo not drawn) [Example 29, 1-(2-chloro-4-((2-((2-methoxyphenethyl)carbamoyl)thiophen-3-yl)carbamoyl)phenyl)pyrrolidine-3-carboxylic acid] | 1 to 10 µM | > 10 µM
COc1ccccc1CNC(=O)c1sccc1NC(=O)c1ccc(O)c(Cl)c1 [Example 8, 3-(3-chloro-4-hydroxybenzamido)-N-(2-methoxybenzyl)thiophene-2-carboxamide] | ≤ 0.1 µM | ≤ 1 µM
CC(C)(C)CCNC(=O)c1sccc1NC(=O)c1ccc(O)c(Cl)c1 [Example 3, 3-(3-chloro-4-hydroxybenzamido)-N-(3,3-dimethylbutyl)thiophene-2-carboxamide] | ≤ 0.1 µM | ≤ 1 µM
COc1ccncc1CCNC(=O)c1sccc1NC(=O)c1ccc(O)c(Cl)c1 [Example 7, 3-(3-chloro-4-hydroxybenzamido)-N-(2-(4-methoxypyridin-3-yl)ethyl)thiophene-2-carboxamide] | 0.1 to 1 µM | ≤ 1 µM
CC(C)(C)CCNC(=O)c1sccc1NC(=O)c1cc(F)c(O)c(F)c1 [Example 18, 3-(3,5-difluoro-4-hydroxybenzamido)-N-(3,3-dimethylbutyl)thiophene-2-carboxamide] | ≤ 0.1 µM | ≤ 1 µM
